Patent publication US20240197761A1, “FUCOSYLATION AND IMMUNE MODULATION IN CANCER” (H. LEE MOFFITT CANCER CENTER AND RESEARCH INSTITUTE, INC., priority 2021, published 2024)

Tested on: SW1 tumors
Test: NSG melanoma model: SW1 tumor growth in immunodeficient mice
Assay type: in vivo
Text: All animals were housed at the Vincent A. Stabile Research building animal facility at H. Lee Moffitt Cancer Center & Research Institute, which is fully accredited by the Association for Assessment and Accreditation of Laboratory Animal Care International (AAALAC, #434), and are managed in accordance with the Guide for the Care and Use of Laboratory Animals (“The Guide”), the Animal Welfare Regulations Title 9 Code of Federal Regulations Subchapter A, “Animal Welfare”, Parts 1-3 (AWR), the Public Health Service Policy on Humane Care and Use of Laboratory Animals (PHS Policy), and by the USF Institutional Animal Care and Use Committee's Principles and Procedures of Animal Care and Use (IACUC Principles). The experiments and protocols detailed in this study received institutional approval by the Moffitt IACUC (RIS00001625). Four-to-six-week-old female C3H/HeN and male C57BL6 mice were purchased from Charles Rivers Laboratories for the indicated experiments. Four-to-six-week-old male NSG mice from the Lau laboratory breeding colony were used for the indicated experiments. Power calculations were used to determine mouse cohort sizes to detect significant changes in tumor sizes. […] Mouse tumor volumes were measured using length, width and depth divided by 2. […]

## C[C@H](O)[C@@H](O)[C@@H](O)[C@H](O)C=O [L-fucose]
  SW1 tumor growth: did not reduce
